Reference: US20130281512A1, “AGENTS FOR TREATING DISORDERS INVOLVING MODULATION OF RYANODINE RECEPTORS” (LES LABORATOIRES SERVIER, priority 2012, published 2013)
One block for each compound: values may come before it.

Key:
[1] = system: ischemia-reperfusion induced heart failure; test: Model of chronic post-ischemic heart failure in rat (ischemia-reperfusion injury); format: in vivo; conditions: 5 mg/kg/d in drinking water, 3 months
Procedure: Chronic heart failure was induced in male wistar rats (224-240 g, 10-11 weeks of age) by ischemia-reperfusion (I/R) injury. For I/R protocol, the left anterior descending (LAD) coronary artery was occluded for 1 h. Drug treatment (5 mg/kg/d or 10 mg/kg/d in drinking water) was initiated 1 week after reperfusion and was maintained for a 3 month study period. […] Cardiac specimens were also analyzed to assess hypertrophy and collagen content. The study design is depicted in FIG. 3. Experiments were performed in a blinded manner. On parameters measured over time, comparison of Sham versus Vehicle and comparison of drug treatments are analyzed by 2 way ANOVAs with repeated measures. On parameters measured at sacrifice and morphometry, comparisons of Sham versus Vehicle are analyzed by t-test and comparisons of drug treatments by 1-way ANOVA followed by Dunnett test.

[2] = Metabolic stability in human hepatic microsomes (Clint, predicted MF %); format: in vitro ADME; conditions: for Clint_mic man (in vitro intrinsic clearance): 10^-7 M, 0.33 mg protein/ml, NADPH; for MF mic % (metabolic bioavailability): predicted from Clint assuming total absorption
Procedure: (§1) Compound solubilization: Stock solutions were made in DMSO, and working solutions in water containing 1 mg/ml BSA.
(§2) Prediction of metabolic bioavailability: Metabolic bioavailability predictions (MF %) were based on in vitro metabolic stability measurements with hepatic microsomes assuming total absorption. Briefly, unchanged drugs were quantified by LC-MS-MS following incubation (10^−7M) with rat and human hepatic microsomes (0.33 mg protein/ml) after 0, 5, 15, 30 and 60 min of incubation in presence of NADPH (1 mM). Enzymatic reaction was stopped with methanol (v/v) and proteins were precipitated by centrifugation. The in vitro intrinsic clearances (Clint_mic) expressed as ml/min/g protein were the slope (after LN linearization) of the unchanged drug remaining concentration versus incubation time. In vitro Clint were then scaled up to in vivo whole body (vivoClint) using 0.045 mg prot/kg of liver and liver weight of 11 g for the rat and 1.2 kg for Man.

[3] = Metabolic stability in rat hepatic microsomes (Clint, predicted MF %); format: in vitro ADME; conditions: for Clint_mic rat (in vitro intrinsic clearance): 10^-7 M, 0.33 mg protein/ml, NADPH; for MF mic % (metabolic bioavailability): predicted from Clint assuming total absorption
Procedure: as §1, §2

rat hepatocytes = test: Metabolic stability in rat hepatocytes; format: in vitro ADME; conditions: for Clint: 6.00E+05 cells/ml, 10^-7 M
Procedure: (§3) Compound solubilization: Stock solutions were made in DMSO, and working solutions in William medium containing 1/10 rat plasma or 1/4 human plasma.
(§4) Metabolic stability determination: Compounds were incubated at 10^−7 M with isolated hepatocytes (6E+5 cells/ml for rat hepatocytes and 4E+5 cells/ml for human hepatocytes) at 37° C. in plasma from the same species diluted in Wiliams medium (1/10 dilution for rat and 1/4 dilution for human). Sampling times were performed at 0, 10, 20, 30, 60 and 120 min and enzymatic reaction stopped with methanol (v/v). Proteins were precipitated by centrifugation and the supernatant was analyzed by LC/MS/MS. Clint expressed as ml/min/g protein were calculated as for hepatic microsomes using a ratio of 0.134 mg protein/ml for 4E+5 cells/ml for human and 0.201 mg protein/ml for 6E+5 cells/ml for rat. The presence of the reference drug and the potential metabolite was checked by LC/MS/MS during the assay in each sample.

[4] = Metabolic stability in mouse microsomes (% remaining); format: in vitro ADME
Procedure: (§5) 0.1M Tris HCl buffer at pH 7.4 containing 5 mM EDTA.
(§6) To a 50 mL falcon tube containing 2.79 mL of dilution buffer were added 0.429 mL of NADPH-regenerating soln. A and 0.079 mL of NADPH-regenerating soln. B […]
(§7) […] A 50 mL falcon tube containing 3.32 mL of dilution buffer was prewarmed at 37° C. for 15 min. (at least 10 min.) 0.178 mL of microsome (24.6 mg/mL) were added to the prewarmed dilution buffer. The protein concentration of this microsome preparation was 1.25 mg/mL.
(§8) Sample (Test Compound)—Original and Intermediate Stock Solutions:
(§9) 100 μM intermediate solution of the test compound from the original stock solution were prepared using the dilution buffer. A 5 μM solution was prepared by diluting the 100 μM intermediate solution using dilution buffer.
(§10) (The experiments were conducted in 1.5 mL eppendorf micro centrifuge tubes) 0 minutes incubation. Procedure: a. Add 100 μL of prewarmed microsomes b. Add 50 μL of 5 μM solution of the test compound. c. Add 500 μL of cold stop solution (ice cold Methanol) d. Add 100 μL of NADPH cofactor solution to the eppendorf. a. Vortex mix the eppendorf. […]
(§11) b. Add 100 μL of NADPH cofactor solution to the eppendorf. c. Add 50 μL of 5 μM solution of the test compound. d. Add 100 μL of prewarmed microsomes e. Incubate the eppendorf at 37° C. 300 rpm for ‘t’ min. on a thermomixer. f. Remove the eppendorf from thermomixer g. Add 500 μL of cold stop solution (ice cold Methanol) h. Vortex mix the eppendorf.
(§12) Both the ‘0’ and ‘t’ minutes incubated samples were centrifuged at 15, 000 rcf at 4° C. for 15 min. 500 μL of the supernatant solution was removed and subject it to LC/MS analysis (SIM—Selected Ion Monitoring) […]
(§13) Results are expressed as % test compound remaining=(MS Area response of T min sample/MS Area response of ‘0’ min sample)*100. The MS area used is an average of duplicate injections.
(§14) Time points=0, 15, 30 and 60 min. for each test compound
(§15) 2 μM Imipramine—5 min. and 2 μM Imipramine—15 min. incubation was used as a positive control for the rat and mouse liver microsome stability experiments.

[5] = Metabolic stability in rat microsomes (% remaining); format: in vitro ADME
Procedure: as §5, §6, §7, §8, §9, §10, §11, §12, §13, §14, §15

human hepatocytes = test: Metabolic stability in human hepatocytes; format: in vitro ADME; conditions: for Clint: 4.00E+05 cells/ml, 10^-7 M
Procedure: as §3, §4

PKA-phosphorylated RyR2 = biological target: T1, PKA-phosphorylated RyR2 (Homo sapiens, UniProt Q92736); test: Calstabin2 rebinding assay: binding of calstabin2 to PKA-phosphorylated RyR2 (cardiac SR, immunoblot); conditions: 100 nM compound; immunoblot with calstabin2 antibody
T1 construct: Cardiac SR membranes were prepared as previously described; from tissue; host or cells: cardiac sarcoplasmic reticulum (heart muscle microsomes)
Procedure: Cardiac SR membranes were prepared as previously described (Marx et al., 2000; Kaftan et al., Circ. Res., 1996, 78:990-97). Immunoblotting of microsomes (50 μg) was performed as described, with anti-calstabin antibody (1:1,000) (Jayaraman et al., J. Biol. Chem., 1992, 267:9474-77) for 1 hr at room temperature (Reiken et al., Circulation, 107:2459-66, 2003). After incubation with HRP-labeled anti-rabbit IgG (1:5,000 dilution; Transduction Laboratories, Lexington, Ky.), the blots were developed using ECL (Amersham Pharmacia, Piscataway, N.J.) and detected on x-ray film, or exposed to secondary antibodies labeled with infrared Dye and visualized on equipment from Li-Cor Biosciences (model Odyssey). Unless otherwise stated, compounds were tested at a concentration of 100 nM. A representative calstabin2 binding assay is presented below.
A. PKA phosphorylation of cardiac sarcoplasmic reticulum (CSR)
B. Reaction mixture was set up in 1.5 ml microfuge tube. 200 μg of cardiac SR were added to a reaction mix of kinase buffer, PKA and ATP to a final volume of 100 (Reaction mix below). ATP was added last to initiate the reaction.
20 μl Sample (cardiac SR, 2 or 10 μg/μl) 10 μl=10× Kinase buffer (80 mM MgCl2, 100 mM EGTA, 500 mM Tris/PIPES), pH=7.0
20 μl PKA (2units/ul) (Sigma # P2645)
40 μl=distilled H2O • 1. The tubes were incubated at 30° C. for 30 minutes. • 2. The reaction mix was then transferred to 0.5 ml thick walled glass tubes. • 3. The glass tubes containing the reaction mix were centrifuged for 10 min at 50,000×g in Sorvall Centrifuge RCM120EX using S120AT3 rotor. Centrifugation at 50,000×g for 10 min is sufficient to isolate the microsomes. • 4. The resulting pellet was washed 4 times with binding buffer (10 mM Imidazol 300 mM Sucrose, pH=7.4). Each time 100111 of 1× binding buffer was added to the tube to wash the pellet. The pellet was resuspended by flushing up and down using the pipette tip. After the last spin 501.11 of binding buffer was added and the pellets from all tubes were pooled. The reaction was stored at −20° C. • 5. Phosphorylation was confirmed by separating approximately 10 μg of CSR by 6% Polyacylamide gel electrophoresis (PAGE) and analyzing the immunoblots for both total RyR (5029 Ab, 1:3000 dilution or Monoclonal Ab from Affinity Bioreagents, Cat # MA3-916, 1:2000 dilution) and PKA phosphorylated RyR2 (P2809 Ab, 1:10000 dilution). • 6. Aliquots can be stored at −80 C.
C. Calstabin Rebinding Assay
• 1. PKA-phosphorylated CSR (approximately 20 μg) was incubated with 250 nM Calstabin 2 in 100111 binding buffer (as described above) with or without compounds. • 2. […] Calstabin2 binding was detected with anti-FKBP (Jayaraman et al., J. Biol. Chem. 1992; 267:9474-77, 1:2000) primary antibody and appropriate secondary antibody.

PKA-phosphorylated RyR1 = PKA-phosphorylated RyR1 (Homo sapiens, UniProt P21817); test: biochemical
Procedure: Immunoblotting of microsomes (50 μg) was performed as described, with anti-calstabin1 antibody (Zymed) (1:1,000). The blots were developed and quantified as described in Example 2.

DMD exon skipping = conditions: skeletal muscle of mdx mice; cited from earlier work

T1 sequence (Q92736 whole entry): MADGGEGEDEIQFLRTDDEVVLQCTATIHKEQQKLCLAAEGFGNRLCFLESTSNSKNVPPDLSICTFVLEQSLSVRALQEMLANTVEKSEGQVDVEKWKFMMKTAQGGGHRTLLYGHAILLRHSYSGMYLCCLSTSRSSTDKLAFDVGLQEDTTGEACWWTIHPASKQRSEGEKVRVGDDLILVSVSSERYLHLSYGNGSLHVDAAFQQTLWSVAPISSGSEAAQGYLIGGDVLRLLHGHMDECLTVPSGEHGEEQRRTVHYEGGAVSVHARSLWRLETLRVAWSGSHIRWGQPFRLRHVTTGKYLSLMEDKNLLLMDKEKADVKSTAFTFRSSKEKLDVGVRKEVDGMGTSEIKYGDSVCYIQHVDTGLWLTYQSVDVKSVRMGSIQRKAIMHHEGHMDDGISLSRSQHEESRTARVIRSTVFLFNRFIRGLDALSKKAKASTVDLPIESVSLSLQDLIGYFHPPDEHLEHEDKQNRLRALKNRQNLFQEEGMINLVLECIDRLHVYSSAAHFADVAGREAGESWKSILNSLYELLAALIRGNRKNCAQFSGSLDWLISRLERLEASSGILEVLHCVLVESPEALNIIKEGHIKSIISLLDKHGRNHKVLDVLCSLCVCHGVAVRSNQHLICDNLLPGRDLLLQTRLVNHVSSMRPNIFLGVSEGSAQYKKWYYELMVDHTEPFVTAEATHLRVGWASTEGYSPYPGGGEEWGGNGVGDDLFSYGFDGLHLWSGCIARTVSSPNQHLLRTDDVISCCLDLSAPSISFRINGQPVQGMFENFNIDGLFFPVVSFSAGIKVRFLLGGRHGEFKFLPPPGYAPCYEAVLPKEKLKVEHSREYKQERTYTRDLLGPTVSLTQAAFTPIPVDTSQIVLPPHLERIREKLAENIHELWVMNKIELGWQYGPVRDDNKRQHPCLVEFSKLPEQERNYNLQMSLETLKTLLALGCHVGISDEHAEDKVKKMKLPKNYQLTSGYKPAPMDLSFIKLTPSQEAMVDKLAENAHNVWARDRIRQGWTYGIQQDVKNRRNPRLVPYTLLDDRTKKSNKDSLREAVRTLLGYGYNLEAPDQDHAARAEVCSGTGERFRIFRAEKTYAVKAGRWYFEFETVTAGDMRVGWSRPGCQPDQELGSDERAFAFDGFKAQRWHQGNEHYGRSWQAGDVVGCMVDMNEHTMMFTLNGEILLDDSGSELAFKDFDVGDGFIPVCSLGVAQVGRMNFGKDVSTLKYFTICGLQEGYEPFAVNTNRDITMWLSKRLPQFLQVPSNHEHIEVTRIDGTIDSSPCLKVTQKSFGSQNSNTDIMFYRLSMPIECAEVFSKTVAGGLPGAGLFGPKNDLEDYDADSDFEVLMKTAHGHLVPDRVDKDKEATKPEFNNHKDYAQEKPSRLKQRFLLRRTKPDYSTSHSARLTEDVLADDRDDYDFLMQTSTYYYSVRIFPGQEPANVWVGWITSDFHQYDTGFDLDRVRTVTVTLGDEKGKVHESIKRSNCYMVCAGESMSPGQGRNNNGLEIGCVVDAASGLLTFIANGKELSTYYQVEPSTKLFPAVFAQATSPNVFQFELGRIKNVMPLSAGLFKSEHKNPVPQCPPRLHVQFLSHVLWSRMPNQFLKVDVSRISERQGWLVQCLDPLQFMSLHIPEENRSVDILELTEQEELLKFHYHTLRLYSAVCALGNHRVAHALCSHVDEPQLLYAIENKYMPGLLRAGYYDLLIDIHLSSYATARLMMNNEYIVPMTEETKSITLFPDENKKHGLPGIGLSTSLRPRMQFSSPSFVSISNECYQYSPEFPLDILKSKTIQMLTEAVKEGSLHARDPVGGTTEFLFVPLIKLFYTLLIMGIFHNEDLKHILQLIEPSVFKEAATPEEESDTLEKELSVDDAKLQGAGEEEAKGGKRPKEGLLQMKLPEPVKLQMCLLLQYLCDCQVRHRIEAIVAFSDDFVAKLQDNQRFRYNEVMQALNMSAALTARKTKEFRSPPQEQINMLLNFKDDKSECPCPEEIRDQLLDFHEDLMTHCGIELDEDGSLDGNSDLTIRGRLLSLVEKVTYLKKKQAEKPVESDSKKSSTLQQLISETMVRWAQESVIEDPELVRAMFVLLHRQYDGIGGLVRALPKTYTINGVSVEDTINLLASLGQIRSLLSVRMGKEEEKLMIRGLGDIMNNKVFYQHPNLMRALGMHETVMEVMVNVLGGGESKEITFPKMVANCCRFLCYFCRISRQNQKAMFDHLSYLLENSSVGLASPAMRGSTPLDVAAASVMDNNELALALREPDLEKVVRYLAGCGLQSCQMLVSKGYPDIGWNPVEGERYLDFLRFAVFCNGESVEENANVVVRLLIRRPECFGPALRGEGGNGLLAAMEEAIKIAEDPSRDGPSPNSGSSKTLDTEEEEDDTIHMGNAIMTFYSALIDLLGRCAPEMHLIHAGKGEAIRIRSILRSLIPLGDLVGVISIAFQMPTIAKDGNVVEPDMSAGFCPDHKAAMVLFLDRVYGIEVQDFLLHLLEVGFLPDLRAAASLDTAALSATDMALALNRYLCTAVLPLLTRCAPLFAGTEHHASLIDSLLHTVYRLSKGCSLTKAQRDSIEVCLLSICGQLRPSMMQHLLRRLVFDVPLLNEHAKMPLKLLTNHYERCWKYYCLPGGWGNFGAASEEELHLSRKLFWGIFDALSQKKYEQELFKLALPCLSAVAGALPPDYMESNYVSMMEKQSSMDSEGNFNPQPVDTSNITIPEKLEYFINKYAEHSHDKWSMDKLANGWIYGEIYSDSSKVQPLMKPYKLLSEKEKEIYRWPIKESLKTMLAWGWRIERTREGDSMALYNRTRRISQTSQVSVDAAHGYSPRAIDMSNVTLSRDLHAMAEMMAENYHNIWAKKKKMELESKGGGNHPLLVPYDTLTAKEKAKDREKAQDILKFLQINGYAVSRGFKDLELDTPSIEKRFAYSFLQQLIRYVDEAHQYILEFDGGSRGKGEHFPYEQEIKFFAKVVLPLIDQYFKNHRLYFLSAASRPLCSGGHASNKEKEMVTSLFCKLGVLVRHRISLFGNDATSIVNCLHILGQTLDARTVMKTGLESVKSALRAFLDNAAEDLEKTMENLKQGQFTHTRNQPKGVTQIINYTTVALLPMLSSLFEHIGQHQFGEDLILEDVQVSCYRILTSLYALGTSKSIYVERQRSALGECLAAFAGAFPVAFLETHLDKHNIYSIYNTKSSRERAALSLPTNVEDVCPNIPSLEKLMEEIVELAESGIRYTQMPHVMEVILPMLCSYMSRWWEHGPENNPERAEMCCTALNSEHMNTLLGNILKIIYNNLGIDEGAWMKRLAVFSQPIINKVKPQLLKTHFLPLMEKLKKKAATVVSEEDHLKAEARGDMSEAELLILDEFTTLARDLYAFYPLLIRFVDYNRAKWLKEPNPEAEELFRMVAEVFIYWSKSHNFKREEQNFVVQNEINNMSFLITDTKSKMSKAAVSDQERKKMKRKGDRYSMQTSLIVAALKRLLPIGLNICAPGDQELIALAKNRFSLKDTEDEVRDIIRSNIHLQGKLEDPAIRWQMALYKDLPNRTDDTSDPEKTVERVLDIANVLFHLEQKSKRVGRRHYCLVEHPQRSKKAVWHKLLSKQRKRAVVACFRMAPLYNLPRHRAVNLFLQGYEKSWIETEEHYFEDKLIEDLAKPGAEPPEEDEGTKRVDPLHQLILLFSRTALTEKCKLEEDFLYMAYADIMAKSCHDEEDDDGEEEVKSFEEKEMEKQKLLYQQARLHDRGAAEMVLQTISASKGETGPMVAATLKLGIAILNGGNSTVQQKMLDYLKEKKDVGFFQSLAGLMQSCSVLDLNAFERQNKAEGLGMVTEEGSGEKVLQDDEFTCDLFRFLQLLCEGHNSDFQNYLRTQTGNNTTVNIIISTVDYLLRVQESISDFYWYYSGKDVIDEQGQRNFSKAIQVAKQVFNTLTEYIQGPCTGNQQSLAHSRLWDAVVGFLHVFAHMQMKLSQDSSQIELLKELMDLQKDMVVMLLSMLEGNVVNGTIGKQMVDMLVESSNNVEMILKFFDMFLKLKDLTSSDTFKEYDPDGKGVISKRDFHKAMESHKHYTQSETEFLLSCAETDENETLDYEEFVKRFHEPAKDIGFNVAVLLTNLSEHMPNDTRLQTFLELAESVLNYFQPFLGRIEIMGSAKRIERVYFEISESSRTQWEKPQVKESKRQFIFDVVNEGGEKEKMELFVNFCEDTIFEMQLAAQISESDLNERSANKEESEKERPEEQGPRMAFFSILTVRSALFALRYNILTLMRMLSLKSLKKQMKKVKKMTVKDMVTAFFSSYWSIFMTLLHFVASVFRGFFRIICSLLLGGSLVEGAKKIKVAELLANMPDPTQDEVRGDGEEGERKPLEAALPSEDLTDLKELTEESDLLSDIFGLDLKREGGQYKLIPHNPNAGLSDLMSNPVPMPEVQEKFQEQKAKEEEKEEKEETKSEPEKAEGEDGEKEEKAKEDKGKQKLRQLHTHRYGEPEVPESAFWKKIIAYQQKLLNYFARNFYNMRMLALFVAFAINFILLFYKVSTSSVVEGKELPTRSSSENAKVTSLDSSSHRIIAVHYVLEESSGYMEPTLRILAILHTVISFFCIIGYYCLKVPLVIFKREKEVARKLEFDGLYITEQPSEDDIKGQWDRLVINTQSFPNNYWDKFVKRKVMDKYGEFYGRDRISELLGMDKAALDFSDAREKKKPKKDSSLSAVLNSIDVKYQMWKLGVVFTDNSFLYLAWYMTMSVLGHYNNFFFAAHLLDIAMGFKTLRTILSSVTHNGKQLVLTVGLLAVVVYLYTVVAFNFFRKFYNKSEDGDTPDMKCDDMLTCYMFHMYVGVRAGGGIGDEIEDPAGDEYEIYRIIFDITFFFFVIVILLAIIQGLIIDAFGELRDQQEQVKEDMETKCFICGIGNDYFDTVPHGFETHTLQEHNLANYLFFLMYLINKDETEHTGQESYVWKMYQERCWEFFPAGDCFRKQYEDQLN
T1 sequence (P68106 whole entry partner): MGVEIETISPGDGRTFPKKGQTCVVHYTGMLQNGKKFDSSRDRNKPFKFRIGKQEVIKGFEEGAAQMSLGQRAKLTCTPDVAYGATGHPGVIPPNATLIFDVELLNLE

Compound: COc1ccc2c(c1)CN(CC(=O)O)CCS2 [A]
systolic and diastolic cardiac function [1]: failed to improve

Class (metabolic bioavailability) [2]: very low | Clint_mic man (in vitro intrinsic clearance) [2]: 285 ml/min/gprot | MF mic % (metabolic bioavailability) [2]: 6% | Class (metabolic bioavailability) [3]: very low | Clint_mic rat (in vitro intrinsic clearance) [3]: 823 ml/min/gprot | MF mic % (metabolic bioavailability) [3]: 5% | MF rat % (rat hepatocytes): 3% | Clint (rat hepatocytes): 1334 ml/min/gprot | % remaining ([4]; 15 min): 0% | % remaining ([4]; 30 min): 0% | % remaining ([4]; 1 h): 0% | % remaining ([5]; 15 min): 1% | % remaining ([5]; 30 min): 0% | % remaining ([5]; 1 h): 0% | MF human % (human hepatocytes): 3% | Clint (human hepatocytes): 693 ml/min/gprot
Compound: COc1ccc2c(c1)CN(Cc1ccc(O)cc1)CCS2 [B]

Compound: COC(=O)c1cccc(CN2CCSc3ccc(OC)cc3C2)c1 [Compound 2, Methyl 3-((7-methoxy-2,3-dihydrobenzo[f][1,4]thiazepin-4(5H)-yl)methyl)benzoate]
binding of calstabin2 to PKA-phosphorylated RyR2 (PKA-phosphorylated RyR2): prevent dissociation of calstabin2 from PKA-phosphorylated RyR2, and/or enhance the (re)binding of calstabin2 to PKA-phosphorylated RyR2

Compound: COC(=O)c1ccc(CN2CCSc3ccc(OC)cc3C2)cc1 [Compound 3, Methyl 4-((7-methoxy-2,3-dihydrobenzo[f][1,4]thiazepin-4(5H)-yl)methyl)benzoate]
binding of calstabin2 to PKA-phosphorylated RyR2 (PKA-phosphorylated RyR2): prevent dissociation of calstabin2 from PKA-phosphorylated RyR2, and/or enhance the (re)binding of calstabin2 to PKA-phosphorylated RyR2

EC50 (PKA-phosphorylated RyR1): ~0.15 µM
Compound: COc1ccc2c(c1)CN(Cc1cccc(C(=O)O)c1)CCS2 [Compound 4, 3-((7-Methoxy-2,3-dihydrobenzo[f][1,4]thiazepin-4(5H)-yl)methyl)benzoic acid]
binding of calstabin1 to PKA phosphorylated RyR1 (PKA-phosphorylated RyR1; indicated concentrations, immunoblot with calstabin1 antibody): prevented the dissociation of calstabin1 from PKA phosphorylated RyR1 and/or enhanced the (re)binding of calstabin1 to PKA-phosphorylated RyR1 in a dose-dependent manner | binding of calstabin2 to PKA-phosphorylated RyR2 (PKA-phosphorylated RyR2): prevent dissociation of calstabin2 from PKA-phosphorylated RyR2, and/or enhance the (re)binding of calstabin2 to PKA-phosphorylated RyR2

Class (metabolic bioavailability) [2]: very low | Clint_mic man (in vitro intrinsic clearance) [2]: 1326 ml/min/gprot | MF mic % (metabolic bioavailability) [2]: 2% | Class (metabolic bioavailability) [3]: very low | Clint_mic rat (in vitro intrinsic clearance) [3]: 1926 ml/min/gprot | MF mic % (metabolic bioavailability) [3]: 2% | MF rat % (rat hepatocytes): 2% | Clint (rat hepatocytes): 2610 ml/min/gprot | % remaining ([4]; 15 min): 0% | % remaining ([4]; 30 min): 0% | % remaining ([4]; 1 h): 0% | % remaining ([5]; 15 min): 0% | % remaining ([5]; 30 min): 0% | % remaining ([5]; 1 h): 0% | MF human % (human hepatocytes): 16% | Clint (human hepatocytes): 100 ml/min/gprot
Compound: COc1ccc2c(c1)CN(Cc1ccccc1)CCS2 [Compound C]

Compound: O=C1CN(/N=C/c2ccc(-c3ccc([N+](=O)[O-])cc3)o2)C(O)=N1 [Dantrolene]
antisense oligomer-guided exon skipping (DMD exon skipping): potentiate
